The values below are quoted from earlier work in patent publication US20060035881A1, “Use of targeted oxidative therapeutic formulation in endodontic treatment” (priority 2004, published 2006).

Structures are written as SMILES.

The test system of one data set is E. coli. The note with it: increasing concentration of peroxide in rabbit or human blood containing E. coli.
Data set [1] deals with peroxide-sensitive E. coli. The note with it: infused into the blood of rabbits infected with peroxide-sensitive E. coli.

With `OO` [hydrogen peroxide, Hydrogen peroxide], the “direct bactericidal activity ex vivo” value in the data set on E. coli was “no evidence of direct bactericidal activity”. Further, the “bactericidal effect in vivo” value in data set [1] is “no bactericidal effect”.
